Reference: PubChem BioAssay AID1259407 (Chemical Carcinogenesis Research Information System (CCRIS), 2018)
The source made the active and inactive calls. The rule behind the calls is not given here.

Tested on: CCRIS mutagenicity, Ames/micronucleus/aberration tests
Assay: CCRIS mutagenicity studies
[1] = Test System: AMES SALMONELLA TYPHIMURIUM, Strain/Indicator: TA98, Metabolic Activation: NONE, Method: PREINCUBATION
[2] = Test System: AMES SALMONELLA TYPHIMURIUM, Strain/Indicator: TA100, Metabolic Activation: NONE, Method: PREINCUBATION
[3] = Test System: AMES SALMONELLA TYPHIMURIUM, Strain/Indicator: TA1535, Metabolic Activation: NONE, Method: PREINCUBATION
[4] = Test System: AMES SALMONELLA TYPHIMURIUM, Strain/Indicator: TA1537, Metabolic Activation: NONE, Method: PREINCUBATION

Measured: mutagenic call

Nc1cc(S(=O)(=O)O)cc2cc(S(=O)(=O)O)cc(O)c12
inactive: [1] inactive; negative | Test System: AMES SALMONELLA TYPHIMURIUM, Strain/Indicator: TA98, Metabolic Activation: RAT LIVER S-9, PHENOBARBITAL AND BETA-NAPHTHOFLAVONE, Method: PREINCUBATION inactive; negative | [2] inactive; negative | Test System: AMES SALMONELLA TYPHIMURIUM, Strain/Indicator: TA100, Metabolic Activation: RAT LIVER S-9, PHENOBARBITAL AND BETA-NAPHTHOFLAVONE, Method: PREINCUBATION inactive; negative | [3] inactive; negative | Test System: AMES SALMONELLA TYPHIMURIUM, Strain/Indicator: TA1535, Metabolic Activation: RAT LIVER S-9, PHENOBARBITAL AND BETA-NAPHTHOFLAVONE, Method: PREINCUBATION inactive; negative | [4] inactive; negative | Test System: AMES SALMONELLA TYPHIMURIUM, Strain/Indicator: TA1537, Metabolic Activation: RAT LIVER S-9, PHENOBARBITAL AND BETA-NAPHTHOFLAVONE, Method: PREINCUBATION inactive; negative | Test System: AMES SALMONELLA TYPHIMURIUM, Strain/Indicator: TA1538, Metabolic Activation: NONE, Method: PREINCUBATION inactive; negative | Test System: AMES SALMONELLA TYPHIMURIUM, Strain/Indicator: TA1538, Metabolic Activation: RAT LIVER S-9, PHENOBARBITAL AND BETA-NAPHTHOFLAVONE, Method: PREINCUBATION inactive; negative | Test System: E.COLI, Strain/Indicator: WP2UVRA, Metabolic Activation: NONE, Method: PREINCUBATION inactive; negative | Test System: E.COLI, Strain/Indicator: WP2UVRA, Metabolic Activation: RAT LIVER S-9, PHENOBARBITAL AND BETA-NAPHTHOFLAVONE, Method: PREINCUBATION inactive; negative

CC(C)c1c(C(=O)Nc2ccccc2)c(-c2ccccc2)c(-c2ccc(F)cc2)n1CC[C@@H](O)C[C@@H](O)CC(=O)O
inactive: Test System: AMES SALMONELLA TYPHIMURIUM, Strain/Indicator: TA98, Metabolic Activation: NONE, Method: STANDARD PLATE inactive; negative | Test System: AMES SALMONELLA TYPHIMURIUM, Strain/Indicator: TA98, Metabolic Activation: RAT, LIVER, S-9, AROCLOR 1254, Method: STANDARD PLATE inactive; negative | Test System: AMES SALMONELLA TYPHIMURIUM, Strain/Indicator: TA100, Metabolic Activation: NONE, Method: STANDARD PLATE inactive; negative | Test System: AMES SALMONELLA TYPHIMURIUM, Strain/Indicator: TA100, Metabolic Activation: RAT, LIVER, S-9, AROCLOR 1254, Method: STANDARD PLATE inactive; negative | Test System: AMES SALMONELLA TYPHIMURIUM, Strain/Indicator: TA1535, Metabolic Activation: NONE, Method: STANDARD PLATE inactive; negative | Test System: AMES SALMONELLA TYPHIMURIUM, Strain/Indicator: TA1535, Metabolic Activation: RAT, LIVER, S-9, AROCLOR 1254, Method: STANDARD PLATE inactive; negative | Test System: AMES SALMONELLA TYPHIMURIUM, Strain/Indicator: TA1537, Metabolic Activation: NONE, Method: STANDARD PLATE inactive; negative | Test System: AMES SALMONELLA TYPHIMURIUM, Strain/Indicator: TA1537, Metabolic Activation: RAT, LIVER, S-9, AROCLOR 1254, Method: STANDARD PLATE inactive; negative | Test System: AMES SALMONELLA TYPHIMURIUM, Strain/Indicator: TA1538, Metabolic Activation: NONE, Method: STANDARD PLATE inactive; negative | Test System: AMES SALMONELLA TYPHIMURIUM, Strain/Indicator: TA1538, Metabolic Activation: RAT, LIVER, S-9, AROCLOR 1254, Method: STANDARD PLATE inactive; negative | Test System: CHINESE HAMSTER V-79, Strain/Indicator: V-79 (HGPRT)/6-THIOGUANINE, Metabolic Activation: NONE inactive; negative | Test System: CHINESE HAMSTER V-79, Strain/Indicator: V-79 (HGPRT)/6-THIOGUANINE, Metabolic Activation: RAT, LIVER, S-9, AROCLOR 1254 inactive; negative | Test System: E. COLI, Strain/Indicator: WP2 UVRA, Metabolic Activation: NONE, Method: STANDARD PLATE inactive; negative | Test System: E. COLI, Strain/Indicator: WP2 UVRA, Metabolic Activation: RAT, LIVER, S-9, AROCLOR 1254, Method: STANDARD PLATE inactive; negative

COC(=O)c1ccc(C)cc1
inactive: Test System: AMES SALMONELLA TYPHIMURIUM, Strain/Indicator: TA97, Metabolic Activation: HAMSTER, LIVER, S-9, AROCLOR 1254 (10%), Method: PREINCUBATION inactive; negative | Test System: AMES SALMONELLA TYPHIMURIUM, Strain/Indicator: TA97, Metabolic Activation: HAMSTER, LIVER, S-9, AROCLOR 1254 (30%), Method: PREINCUBATION inactive; negative | Test System: AMES SALMONELLA TYPHIMURIUM, Strain/Indicator: TA97, Metabolic Activation: NONE, Method: PREINCUBATION inactive; negative | Test System: AMES SALMONELLA TYPHIMURIUM, Strain/Indicator: TA97, Metabolic Activation: RAT, LIVER, S-9, AROCLOR 1254 (10%), Method: PREINCUBATION inactive; negative | Test System: AMES SALMONELLA TYPHIMURIUM, Strain/Indicator: TA97, Metabolic Activation: RAT, LIVER, S-9, AROCLOR 1254 (30%), Method: PREINCUBATION inactive; negative | Test System: AMES SALMONELLA TYPHIMURIUM, Strain/Indicator: TA98, Metabolic Activation: HAMSTER, LIVER, S-9, AROCLOR 1254 (10%), Method: PREINCUBATION inactive; negative | Test System: AMES SALMONELLA TYPHIMURIUM, Strain/Indicator: TA98, Metabolic Activation: HAMSTER, LIVER, S-9, AROCLOR 1254 (30%), Method: PREINCUBATION inactive; negative | [1] inactive; negative | Test System: AMES SALMONELLA TYPHIMURIUM, Strain/Indicator: TA98, Metabolic Activation: RAT, LIVER, S-9, AROCLOR 1254 (10%), Method: PREINCUBATION inactive; negative | Test System: AMES SALMONELLA TYPHIMURIUM, Strain/Indicator: TA98, Metabolic Activation: RAT, LIVER, S-9, AROCLOR 1254 (30%), Method: PREINCUBATION inactive; negative | Test System: AMES SALMONELLA TYPHIMURIUM, Strain/Indicator: TA100, Metabolic Activation: HAMSTER, LIVER, S-9, AROCLOR 1254 (10%), Method: PREINCUBATION inactive; negative | Test System: AMES SALMONELLA TYPHIMURIUM, Strain/Indicator: TA100, Metabolic Activation: HAMSTER, LIVER, S-9, AROCLOR 1254 (30%), Method: PREINCUBATION inactive; negative | [2] inactive; negative | Test System: AMES SALMONELLA TYPHIMURIUM, Strain/Indicator: TA100, Metabolic Activation: RAT, LIVER, S-9, AROCLOR 1254 (10%), Method: PREINCUBATION inactive; negative | Test System: AMES SALMONELLA TYPHIMURIUM, Strain/Indicator: TA100, Metabolic Activation: RAT, LIVER, S-9, AROCLOR 1254 (30%), Method: PREINCUBATION inactive; negative | Test System: AMES SALMONELLA TYPHIMURIUM, Strain/Indicator: TA1535, Metabolic Activation: HAMSTER, LIVER, S-9, AROCLOR 1254 (10%), Method: PREINCUBATION inactive; negative | Test System: AMES SALMONELLA TYPHIMURIUM, Strain/Indicator: TA1535, Metabolic Activation: HAMSTER, LIVER, S-9, AROCLOR 1254 (30%), Method: PREINCUBATION inactive; negative | [3] inactive; negative | Test System: AMES SALMONELLA TYPHIMURIUM, Strain/Indicator: TA1535, Metabolic Activation: RAT, LIVER, S-9, AROCLOR 1254 (10%), Method: PREINCUBATION inactive; negative | Test System: AMES SALMONELLA TYPHIMURIUM, Strain/Indicator: TA1535, Metabolic Activation: RAT, LIVER, S-9, AROCLOR 1254 (30%), Method: PREINCUBATION inactive; negative | Test System: AMES SALMONELLA TYPHIMURIUM, Strain/Indicator: TA1537, Metabolic Activation: HAMSTER, LIVER, S-9, AROCLOR 1254 (30%), Method: PREINCUBATION inactive; negative | [4] inactive; negative | Test System: AMES SALMONELLA TYPHIMURIUM, Strain/Indicator: TA1537, Metabolic Activation: RAT, LIVER, S-9, AROCLOR 1254 (30%), Method: PREINCUBATION inactive; negative
